Data taken from US7541018B2, “Treatment process using somatostatin analogues” (University of Bern, priority 2001, dated 2009).
Bridge positions count the residues as written; N and C are the ends. Square brackets hold non-standard residues; d marks the D form. Peptide text beside a SMILES is read from it. * marks the point of attachment. DOTA = O=C(O)CN1CCN(CC(=O)O)CCN(CC(=O)*)CCN(CC(=O)O)CC1; dDab = NCC[C@@H](N)C(=O)O; GABA = NCCCC(=O)O

Key:
Assay in all cases: Receptor autoradiography displacement of 125I-[Leu8,D-Trp22,Tyr25]-somatostatin 28 on membrane pellet sections
Assay type in all cases: binding
human sst4 = target: T1, human sst4 (Homo sapiens, UniProt P31391); conditions: CCL39 cells stably expressing human sst4; sectioned membrane pellets; read-out: IC50 hsst4
T1 construct: expressed in transfected cells; host or cells: CCL39
T1 sequence (P31391 whole entry): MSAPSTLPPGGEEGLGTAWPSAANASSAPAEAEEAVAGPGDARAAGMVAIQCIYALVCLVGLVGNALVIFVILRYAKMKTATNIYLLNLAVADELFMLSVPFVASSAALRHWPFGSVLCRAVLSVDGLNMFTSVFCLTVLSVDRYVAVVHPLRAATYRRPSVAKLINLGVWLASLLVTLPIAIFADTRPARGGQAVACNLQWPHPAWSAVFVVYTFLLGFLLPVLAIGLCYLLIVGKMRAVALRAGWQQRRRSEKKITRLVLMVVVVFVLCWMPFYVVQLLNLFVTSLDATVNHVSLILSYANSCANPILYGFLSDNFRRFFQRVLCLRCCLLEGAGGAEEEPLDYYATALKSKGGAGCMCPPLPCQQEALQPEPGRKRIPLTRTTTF
Description: (§1) Cell culture CHO-K1 cells stably expressing human sst1 and sst5 were kindly provided by Drs. T. Reisine and G. Singh (University of Pennsylvania, Philadelphia, Pa.) and CCL39 cells stably expressing human sst2, sst3, and sst4 by Dr. D. Hoyer (Novartis Pharma, Basel, Switzerland).
(§2) CHO-K1 cells were grown in Ham's F-12 medium and CCL39 cells in Dulbecco's modified Eagle's medium/Ham's F-12 (1:1) mix, supplemented with 10% fetal bovine serum, 100 μg/mL penicillin and 100 μg/mL streptomycin, in humidified air containing 5% CO2 at 37° C. Geneticin (G418-sulfate; Gibco, USA) was used where necessary to maintain selection pressure at a final concentration of 400 μg/mL for sst2 to sst4—and 285 μg/mL for sst5—expressing cells as described previously (Rens-Domiano S. & Reisine T., Biochemical and functional properties of somatostatin receptors, J. Neurochem., 58:1987-1996 (1992); O'Caroll A. et al., Characterization of cloned human somatostatin receptor SSTR5, Molec. Pharmacol., 46:291-298 (1994); Siehler S. et al., [^125I]Tyr^10-cortistatin14 labels all five somatostatin receptors, Naunyn-Schmiedeberg's Arch. Pharmacol., 357:483-489 (1998).).
(§3) Cells were washed twice with and scraped into ice-cold 0.05 M Tris-CHl (pH 7.4), collected by centrifugation, and homogenized using a rotor/stator slash system (POLYTRON®, Kinematica Inc., Littau, Switzerland) in the same buffer. After centrifugation at 120 g for 5 min at 4° C., the supernatant was collected and centrifuged again at 48,000 g for 30 min at 4° C. The resulting pellet was re-suspended in ice-cold Tris buffer, transferred into a microfuge tube, and centrifuged at 20,000 g for 15 min at 4° C. After withdrawal of the supernatant, the membrane pellet was stored at −80° C.
(§4) Receptor autoradiography was performed on 20 μm thick cryostat (Leitz 1720, Rockleigh, N.J.) sections of the membrane pellets, mounted on microscope slides, and then stored at −20° C.
(§5) IC50 values were calculated after quantification of the data using a computer-assisted image processing system as described previously (Reubi, J. C. et al., Detection of somatostatin receptors in surgical and percutaneous needle biopsy samples of carcinoids and islet cell carcinomas, Cancer Res. 50: 5969-5977 (1990).). Tissue standards (Autoradiographic [^125I] microscales, Amersham) that contain known amounts of isotope, cross-calibrated to tissue-equivalent ligand concentrations were used for quantification (Reubi, J. C., In vitro identification of vasoactive intestinal peptide receptors in human tumors: Implications for tumor imaging, J. Nucl. Med. 36: 1846-1853 (1995).).

human sst5 = target: T2, human sst5 (Homo sapiens, UniProt P35346); conditions: CHO-K1 cells stably expressing human sst5; sectioned membrane pellets; read-out: IC50 hsst5
T2 construct: expressed in transfected cells; host or cells: CHO-K1
T2 sequence (P35346 whole entry): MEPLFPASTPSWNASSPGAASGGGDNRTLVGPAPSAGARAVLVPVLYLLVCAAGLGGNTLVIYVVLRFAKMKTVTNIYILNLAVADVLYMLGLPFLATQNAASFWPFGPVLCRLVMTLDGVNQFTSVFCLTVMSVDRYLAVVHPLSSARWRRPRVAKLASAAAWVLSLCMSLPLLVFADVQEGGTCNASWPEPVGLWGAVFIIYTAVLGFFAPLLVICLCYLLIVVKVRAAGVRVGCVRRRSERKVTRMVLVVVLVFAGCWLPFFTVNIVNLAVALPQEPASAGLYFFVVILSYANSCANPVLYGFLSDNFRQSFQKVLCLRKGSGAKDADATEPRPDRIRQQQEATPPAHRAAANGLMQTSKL
Description: as §1, §2, §3, §4, §5

human sst1 = target: T3, human sst1 (Homo sapiens, UniProt P30872); conditions: CHO-K1 cells stably expressing human sst1; sectioned membrane pellets; read-out: IC50 hsst1
T3 construct: expressed in transfected cells; host or cells: CHO-K1
T3 sequence (P30872 whole entry): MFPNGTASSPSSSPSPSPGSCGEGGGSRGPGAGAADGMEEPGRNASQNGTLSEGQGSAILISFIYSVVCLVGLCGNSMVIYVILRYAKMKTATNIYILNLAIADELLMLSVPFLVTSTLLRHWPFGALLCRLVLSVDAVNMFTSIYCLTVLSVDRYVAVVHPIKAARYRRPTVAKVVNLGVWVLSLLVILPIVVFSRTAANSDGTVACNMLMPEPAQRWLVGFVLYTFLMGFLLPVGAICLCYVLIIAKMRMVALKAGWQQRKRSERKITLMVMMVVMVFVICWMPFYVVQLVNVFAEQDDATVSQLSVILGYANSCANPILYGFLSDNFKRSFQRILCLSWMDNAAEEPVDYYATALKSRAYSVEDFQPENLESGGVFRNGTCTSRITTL
Description: as §1, §2, §3, §4, §5

human sst3 = target: T4, human sst3 (Homo sapiens, UniProt P32745); conditions: CCL39 cells stably expressing human sst3; sectioned membrane pellets; read-out: IC50 hsst3
T4 construct: expressed in transfected cells; host or cells: CCL39
T4 sequence (P32745 whole entry): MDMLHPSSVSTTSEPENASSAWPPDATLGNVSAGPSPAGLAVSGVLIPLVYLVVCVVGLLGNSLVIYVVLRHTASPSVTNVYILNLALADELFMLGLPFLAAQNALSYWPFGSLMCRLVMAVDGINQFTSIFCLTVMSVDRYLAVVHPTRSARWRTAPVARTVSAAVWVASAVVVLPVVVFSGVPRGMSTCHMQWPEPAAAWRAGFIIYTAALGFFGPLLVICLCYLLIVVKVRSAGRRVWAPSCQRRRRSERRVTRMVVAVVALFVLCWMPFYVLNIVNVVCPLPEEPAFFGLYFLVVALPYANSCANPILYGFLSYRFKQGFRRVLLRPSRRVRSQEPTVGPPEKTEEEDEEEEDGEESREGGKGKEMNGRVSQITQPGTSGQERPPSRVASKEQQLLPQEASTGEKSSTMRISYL
Description: as §1, §2, §3, §4, §5

human sst2 = target: T5, human sst2 (Homo sapiens, UniProt P30874); conditions: CCL39 cells stably expressing human sst2; sectioned membrane pellets; read-out: IC50 hsst2
T5 construct: expressed in transfected cells; host or cells: CCL39
T5 sequence (P30874 whole entry): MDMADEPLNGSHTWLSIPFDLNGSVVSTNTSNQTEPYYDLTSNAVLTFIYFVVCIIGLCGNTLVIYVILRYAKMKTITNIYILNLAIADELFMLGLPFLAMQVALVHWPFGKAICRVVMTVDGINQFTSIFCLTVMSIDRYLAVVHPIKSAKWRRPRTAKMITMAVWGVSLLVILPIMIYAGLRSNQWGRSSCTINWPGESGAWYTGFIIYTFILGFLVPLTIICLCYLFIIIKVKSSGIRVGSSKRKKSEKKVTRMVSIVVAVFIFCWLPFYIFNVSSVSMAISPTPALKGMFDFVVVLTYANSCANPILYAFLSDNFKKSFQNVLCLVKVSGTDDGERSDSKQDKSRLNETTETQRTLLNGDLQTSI
Description: as §1, §2, §3, §4, §5

## C[C@@H](O)[C@@H]1NC(=O)[C@H](CCCCN)NC(=O)[C@@H](Cc2c[nH]c3ccccc23)NC(=O)[C@H](Cc2ccc(O)cc2)NC(=O)[C@H](Cc2ccccc2)NC(=O)[C@H](CCCNC(=N)N)NC(=O)CCCNC(=O)[C@H](Cc2ccccc2)NC1=O [A with X4 is Tyr and X1 is GABA] (cyclo(F[GABA]RFY[dW]KT); ring closure inferred)
Human sst4
  IC50: 0.68 nM
Human sst5
  IC50: 0.57 nM
Human sst1
  IC50: 10.5 nM
Human sst3
  IC50: 1.7 nM

## C[C@@H](O)[C@@H]1NC(=O)[C@H](CCCCN)NC(=O)[C@@H](Cc2c[nH]c3ccccc23)NC(=O)[C@H](Cc2ccc(O)cc2)NC(=O)[C@H](Cc2ccccc2)NC(=O)[C@H](CCCNC(=N)N)NC(=O)[C@H](N)CCNC(=O)[C@H](Cc2ccccc2)NC1=O [A with X4 is Tyr] (H-[dDab]RFY[dW]KTF; lactam 1-C)
Human sst4
  IC50: 1 nM
Human sst5
  IC50: 0.8 nM
Human sst1
  IC50: 24.5 nM
Human sst3
  IC50: 2 nM
Human sst2
  IC50: 2.9 nM

## C[C@@H](O)[C@@H]1NC(=O)[C@H](CCCCN)NC(=O)[C@@H](Cc2c[nH]c3ccccc23)NC(=O)[C@H](Cc2ccccc2)NC(=O)[C@H](Cc2ccccc2)NC(=O)[C@H](CCCNC(=N)N)NC(=O)[C@H](NC(=O)CN2CCN(CC(=O)O)CCN(CC(=O)O)CCN(CC(=O)O)CC2)CCNC(=O)[C@H](Cc2ccccc2)NC1=O [A, Z = DOTA] ({DOTA}-[dDab]RFF[dW]KTF; lactam 1-C)
Human sst4
  IC50: 0.9 nM
Human sst5
  IC50: 0.8 nM
Human sst1
  IC50: 7.6 nM
Human sst3
  IC50: 1.6 nM
Human sst2
  IC50: 3 nM

## C[C@@H](O)[C@@H]1NC(=O)[C@H](CCCCN)NC(=O)[C@@H](Cc2c[nH]c3ccccc23)NC(=O)[C@H](Cc2ccccc2)NC(=O)[C@H](Cc2ccccc2)NC(=O)[C@H](CC(N)=O)NC(=O)CCCNC(=O)[C@H](Cc2ccccc2)NC1=O [minisomatostatin, reference compound] (cyclo(FF[dW]KTF[GABA]N))
Human sst4
  IC50: 15.3 nM
Human sst5
  IC50: 6.8 nM
Human sst1
  IC50: 172 nM
Human sst3
  IC50: 3.2 nM
